Measured values: ChEMBL document CHEMBL5576038, “Design of a novel long-acting dual GLP-1/GIP receptor agonist” (Bioorg Med Chem, 2024)
Activity calls are given as the source filed them. The rule behind the calls is not given here. Where a SMILES comes first, the peptide text is derived from it. [ ]: non-standard residue; d: D form. The star is where a group is joined. X1 = N[C@@H](CCCCNC(=O)CC[C@H](NC(=O)CCCCCCCCCCCCCCCCCCC(=O)O)C(=O)O)C(=O)NCCCC[C@H](N)C(=O)N[C@@H](CCCCNC(=O)C*)C(=O)O; X4 = O=C(O)CCCCCCCCCCCCCCCCCCC(=O)NCCOCCOCC(=O)N[C@@H](CCC(=O)N[C@@H](CCC(=O)N[C@@H](CCCCNC(=O)C*)C(=O)O)C(=O)O)C(=O)O; X3 = O=C(O)CCCCCCCCCCCCCCCCC(=O)NCCOCCOCC(=O)N[C@@H](CCC(=O)N[C@@H](CCC(=O)N[C@@H](CCCCNC(=O)C*)C(=O)O)C(=O)O)C(=O)O; X2 = O=C(O)CCCCCCCCCCCCCCCCC(=O)NCCOCCOCC(=O)N[C@@H](CCC(=O)N[C@H](CCC(=O)N[C@H](CCCCNC(=O)C*)C(=O)O)C(=O)O)C(=O)O; Aib = CC(C)(N)C(=O)O

Experiments:
[1] = target: Glucagon-like peptide 1 receptor (Homo sapiens, UniProt P43220); experiment: Agonist activity at human GLP-1R expressed in CHO cells assessed as increase in cAMP production incubated for 30 mins by Eu-cAMP tracer based microplate reader analysis; assay type: functional, cell-based
Chain of Glucagon-like peptide 1 receptor (P43220 whole entry): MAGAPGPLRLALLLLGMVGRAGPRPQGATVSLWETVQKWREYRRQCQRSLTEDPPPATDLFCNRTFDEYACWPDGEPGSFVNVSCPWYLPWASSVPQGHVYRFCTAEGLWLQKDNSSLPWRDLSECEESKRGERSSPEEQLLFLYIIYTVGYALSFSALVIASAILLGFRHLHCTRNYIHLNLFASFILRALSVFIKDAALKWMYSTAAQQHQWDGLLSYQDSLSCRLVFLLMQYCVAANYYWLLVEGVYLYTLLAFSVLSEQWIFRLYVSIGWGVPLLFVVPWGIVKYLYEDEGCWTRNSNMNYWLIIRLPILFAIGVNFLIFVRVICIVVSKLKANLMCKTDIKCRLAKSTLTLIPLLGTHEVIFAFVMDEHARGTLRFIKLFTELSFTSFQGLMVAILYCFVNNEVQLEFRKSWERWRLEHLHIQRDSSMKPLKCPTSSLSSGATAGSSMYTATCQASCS

Mus musculus [2] = experiment: Glucose-lowering effect in male ICR mouse assessed as reduction in plasma glucose AUC (0 to 72 hrs) at 30 nmol/kg, sc pretreated for 71 hrs followed by […] administration and measured after 60 mins by oral glucose tolerance test; assay type: functional, organism-based
[3] = target: T1, Gastric inhibitory polypeptide receptor (Homo sapiens, UniProt P48546); experiment: Agonist activity at human GIPR expressed in CHO cells assessed as increase in cAMP production incubated for 30 mins by Eu-cAMP tracer based microplate reader analysis; assay type: functional, cell-based
T1 sequence (P48546 whole entry): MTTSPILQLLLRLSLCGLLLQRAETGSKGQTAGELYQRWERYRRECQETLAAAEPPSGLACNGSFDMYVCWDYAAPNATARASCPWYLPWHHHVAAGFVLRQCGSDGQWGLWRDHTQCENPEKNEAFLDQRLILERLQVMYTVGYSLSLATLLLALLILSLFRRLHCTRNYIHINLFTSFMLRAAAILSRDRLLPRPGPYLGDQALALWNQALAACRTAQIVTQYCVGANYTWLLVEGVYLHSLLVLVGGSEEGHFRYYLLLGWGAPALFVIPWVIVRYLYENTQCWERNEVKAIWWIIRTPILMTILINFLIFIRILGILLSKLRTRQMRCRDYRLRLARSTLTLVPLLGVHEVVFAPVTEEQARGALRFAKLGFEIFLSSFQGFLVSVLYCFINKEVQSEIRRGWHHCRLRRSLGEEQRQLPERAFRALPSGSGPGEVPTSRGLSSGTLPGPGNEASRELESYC

Mus musculus [4] = experiment: Increase in body weight in male ICR mouse at 30 nmol/kg, sc measured after 2 days; assay type: functional, organism-based; details: time 2.0 day
[5] = Cmax in Beagle dog at 10 nmol/kg, sc administered as single dose and measured upto 168 hrs by LC-MS/MS analysis; assay type: ADME, organism-based, Canis lupus familiaris; details: in vivo
[6] = AUC (0 to 168 hrs) in Beagle dog at 10 nmol/kg, sc administered as single dose and measured upto 168 hrs by LC-MS/MS analysis; assay type: ADME, organism-based, Canis lupus familiaris; details: in vivo
[7] = Tmax in Beagle dog at 10 nmol/kg, sc administered as single dose and measured upto 168 hrs by LC-MS/MS analysis; assay type: ADME, organism-based, Canis lupus familiaris; details: in vivo
[8] = Elimination half life in Beagle dog at 10 nmol/kg, sc administered as single dose and measured upto 168 hrs by LC-MS/MS analysis; assay type: ADME, organism-based, Canis lupus familiaris; details: in vivo
Mus musculus [9] = experiment: Hypoglycemic effect in male db/db mouse model assessed as reduction in HbA1c level at 30 nmol/kg, sc administered every 3 days for 60 days and measured on day 18, 31, 37, 52, 58 and 60 by auto-chemistry analyzer; assay type: functional, organism-based; details: time 60.0 day
Mus musculus [10] = experiment: Anti-obesity activity in male C57/B16 mouse model of diet-induced obesity assessed as reduction in body weight at 30 nmol/kg, sc administered every 3 days for 46 days and measured every 3 days relative to control; assay type: functional, organism-based; design: scale not given: the % may be the effect or the level left; details: time 46.0 day
Mus musculus [11] = experiment: Hypoglycemic effect in male db/db mouse model assessed as reduction in body weight at 30 nmol/kg, sc administered every 3 days for 60 days and measured every 3 days; assay type: functional, organism-based; details: time 60.0 day
Mus musculus [12] = experiment: Hypoglycemic effect in male db/db mouse model assessed as blood glucose level at 30 nmol/kg, sc administered every 3 days for 31 days and measured 72 hrs post each dose; assay type: functional, organism-based; details: time 31.0 day
Mus musculus [13] = experiment: Reduction in body weight in male ICR mouse at 30 nmol/kg, sc measured for 4 days; assay type: functional, organism-based; details: time 4.0 day
Mus musculus [14] = experiment: Anti-obesity activity in male C57/B16 mouse model of diet-induced obesity assessed as reduction in body weight at 10 nmol/kg, sc administered every 3 days for 46 days and measured every 3 days relative to control; assay type: functional; design: scale not given: the % may be the effect or the level left
Mus musculus [15] = experiment: Hypoglycemic effect in male db/db mouse model assessed as reduction in food intake at 30 nmol/kg, sc administered every 3 days for 60 days and measured every 3 days; assay type: functional, organism-based; details: time 60.0 day

CC(C)C[C@H](NC(=O)[C@H](CC(C)C)NC(=O)[C@H](Cc1c[nH]c2ccccc12)NC(=O)[C@H](CCC(N)=O)NC(=O)[C@@H](NC(=O)[C@H](Cc1ccccc1)NC(=O)[C@H](CC(C)C)NC(=O)[C@H](CCCCN)NC(=O)[C@H](C)NC(=O)[C@H](C)NC(=O)[C@H](CCC(N)=O)NC(=O)[C@H](CSCC(=O)NCCCC[C@@H](NC(=O)CC[C@@H](NC(=O)CC[C@H](NC(=O)COCCOCCNC(=O)CCCCCCCCCCCCCCCCC(=O)O)C(=O)O)C(=O)O)C(=O)O)NC(=O)[C@H](CCC(=O)O)NC(=O)[C@H](CC(C)C)NC(=O)[C@H](Cc1ccc(O)cc1)NC(=O)[C@H](Cc1ccc(O)cc1)NC(=O)[C@H](CO)NC(=O)[C@H](Cc1ccc(O)cc1)NC(=O)[C@H](CC(=O)O)NC(=O)[C@H](CO)NC(=O)[C@@H](NC(=O)[C@H](Cc1ccccc1)NC(=O)[C@@H](NC(=O)CNC(=O)[C@H](CCC(=O)O)NC(=O)C(C)(C)NC(=O)[C@@H](N)Cc1ccc(O)cc1)[C@@H](C)O)[C@@H](C)O)C(C)C)C(=O)N[C@@H](C)C(=O)NCC(=O)NCC(=O)N1CCC[C@H]1C(=O)N[C@@H](CO)C(=O)N[C@@H](CO)C(=O)NCC(=O)N[C@@H](C)C(=O)N1CCC[C@H]1C(=O)N1CCC[C@H]1C(=O)N1CCC[C@H]1C(=O)N[C@@H](CO)C(N)=O (H-Y[Aib]EGTFTSDYSYYLEC(X2)QAAKLFVQWLLAGGPSSGAPPPS-NH2)
EC50 ([1]; cho): 0.14 nM | Activity (Mus musculus [2]): Active | EC50 ([3]; cho): 0.11 nM | Activity (Mus musculus [4]): Active

CC(C)C[C@H](NC(=O)[C@H](CC(C)C)NC(=O)[C@H](Cc1c[nH]c2ccccc12)NC(=O)[C@H](CCC(N)=O)NC(=O)[C@@H](NC(=O)[C@H](Cc1ccccc1)NC(=O)[C@H](CC(C)C)NC(=O)[C@H](CCCCN)NC(=O)[C@H](C)NC(=O)[C@H](C)NC(=O)[C@H](CCC(N)=O)NC(=O)[C@H](CCCCN)NC(=O)[C@H](CCC(=O)O)NC(=O)[C@H](CC(C)C)NC(=O)[C@H](CSCC(=O)NCCCC[C@H](NC(=O)CC[C@H](NC(=O)CC[C@H](NC(=O)COCCOCCNC(=O)CCCCCCCCCCCCCCCCC(=O)O)C(=O)O)C(=O)O)C(=O)O)NC(=O)[C@H](Cc1ccc(O)cc1)NC(=O)[C@H](CO)NC(=O)[C@H](Cc1ccc(O)cc1)NC(=O)[C@H](CC(=O)O)NC(=O)[C@H](CO)NC(=O)[C@@H](NC(=O)[C@H](Cc1ccccc1)NC(=O)[C@@H](NC(=O)CNC(=O)[C@H](CCC(=O)O)NC(=O)C(C)(C)NC(=O)[C@@H](N)Cc1ccc(O)cc1)[C@@H](C)O)[C@@H](C)O)C(C)C)C(=O)N[C@@H](C)C(=O)NCC(=O)NCC(=O)N1CCC[C@H]1C(=O)N[C@@H](CO)C(=O)N[C@@H](CO)C(=O)NCC(=O)N[C@@H](C)C(=O)N1CCC[C@H]1C(=O)N1CCC[C@H]1C(=O)N1CCC[C@H]1C(=O)N[C@@H](CO)C(N)=O (H-Y[Aib]EGTFTSDYSYC(X3)LEKQAAKLFVQWLLAGGPSSGAPPPS-NH2)
EC50 [1]: 0.29 nM | EC50 [3]: 0.14 nM | Activity (Mus musculus [4]): Active

TIRZEPATIDE [listing 1 of 2 here]
Cmax ([5]; sc, 168 h): 344 ng/mL | AUC ([6]; sc, 168 h): 35123 ng·h/mL | Tmax ([7]; sc, 168 h): 14 h | beta t1/2 ([8]; sc, 168 h): 93.8 h

SEMAGLUTIDE
Activity (Mus musculus [9]): Active | Activity (Mus musculus [10]): 10% | Activity (Mus musculus [11]): inactive

TIRZEPATIDE [listing 2 of 2 here]
Activity (Mus musculus [9]): Active | Activity (Mus musculus [12]): Active | Activity (Mus musculus [13]): Active | Activity (Mus musculus [14]; time 46.0 day): 21% | Activity (Mus musculus [11]): Active

CC(C)C[C@H](NC(=O)[C@H](CC(C)C)NC(=O)[C@H](Cc1c[nH]c2ccccc12)NC(=O)[C@H](CCC(N)=O)NC(=O)[C@@H](NC(=O)[C@H](Cc1ccccc1)NC(=O)[C@H](CC(C)C)NC(=O)[C@H](CSCC(=O)NCCCC[C@H](NC(=O)[C@@H](N)CCCCNC(=O)[C@@H](N)CCCCNC(=O)CC[C@H](NC(=O)CCCCCCCCCCCCCCCCCCC(=O)O)C(=O)O)C(=O)O)NC(=O)[C@H](C)NC(=O)[C@H](C)NC(=O)[C@H](CCC(N)=O)NC(=O)[C@H](CCCCN)NC(=O)[C@H](CCC(=O)O)NC(=O)[C@H](CC(C)C)NC(=O)[C@H](Cc1ccc(O)cc1)NC(=O)[C@H](Cc1ccc(O)cc1)NC(=O)[C@H](CO)NC(=O)[C@H](Cc1ccc(O)cc1)NC(=O)[C@H](CC(=O)O)NC(=O)[C@H](CO)NC(=O)[C@@H](NC(=O)[C@H](Cc1ccccc1)NC(=O)[C@@H](NC(=O)CNC(=O)[C@H](CCC(=O)O)NC(=O)C(C)(C)NC(=O)[C@@H](N)Cc1ccc(O)cc1)[C@@H](C)O)[C@@H](C)O)C(C)C)C(=O)N[C@@H](C)C(=O)NCC(=O)NCC(=O)N1CCC[C@H]1C(=O)N[C@@H](CO)C(=O)N[C@@H](CO)C(=O)NCC(=O)N[C@@H](C)C(=O)N1CCC[C@H]1C(=O)N1CCC[C@H]1C(=O)N1CCC[C@H]1C(=O)N[C@@H](CO)C(N)=O (H-Y[Aib]EGTFTSDYSYYLEKQAAC(X1)LFVQWLLAGGPSSGAPPPS-NH2)
Activity (Mus musculus [9]): Active | Cmax ([5]; Beagle, read-out: Cmax): 215 ng/mL | AUC(0-t) at 168 h ([6]; Beagle): 23700 ng·h/mL | EC50 [1]: 0.18 nM | Activity (Mus musculus [12]): Active | Activity (Mus musculus [2]): Active | Tmax ([7]; Beagle, read-out: Tmax): 18.7 h | EC50 [3]: 0.06 nM | Activity (Mus musculus [13]): Active | Activity (Mus musculus [14]; time 46 day): 21% | half-life ([8]; Beagle, read-out: beta t1/2 (converted)): 78.3 h | Activity (Mus musculus [15]): Active | Activity (Mus musculus [11]): Active

CC(C)C[C@H](NC(=O)[C@H](CC(C)C)NC(=O)[C@H](Cc1c[nH]c2ccccc12)NC(=O)[C@H](CCC(N)=O)NC(=O)[C@@H](NC(=O)[C@H](Cc1ccccc1)NC(=O)[C@H](CC(C)C)NC(=O)[C@H](CSCC(=O)NCCCC[C@H](NC(=O)CC[C@H](NC(=O)CC[C@H](NC(=O)COCCOCCNC(=O)CCCCCCCCCCCCCCCCCCC(=O)O)C(=O)O)C(=O)O)C(=O)O)NC(=O)[C@H](C)NC(=O)[C@H](C)NC(=O)[C@H](CCC(N)=O)NC(=O)[C@H](CCCCN)NC(=O)[C@H](CCC(=O)O)NC(=O)[C@H](CC(C)C)NC(=O)[C@H](Cc1ccc(O)cc1)NC(=O)[C@H](Cc1ccc(O)cc1)NC(=O)[C@H](CO)NC(=O)[C@H](Cc1ccc(O)cc1)NC(=O)[C@H](CC(=O)O)NC(=O)[C@H](CO)NC(=O)[C@@H](NC(=O)[C@H](Cc1ccccc1)NC(=O)[C@@H](NC(=O)CNC(=O)[C@H](CCC(=O)O)NC(=O)C(C)(C)NC(=O)[C@@H](N)Cc1ccc(O)cc1)[C@@H](C)O)[C@@H](C)O)C(C)C)C(=O)N[C@@H](C)C(=O)NCC(=O)NCC(=O)N1CCC[C@H]1C(=O)N[C@@H](CO)C(=O)N[C@@H](CO)C(=O)NCC(=O)N[C@@H](C)C(=O)N1CCC[C@H]1C(=O)N1CCC[C@H]1C(=O)N1CCC[C@H]1C(=O)N[C@@H](CO)C(N)=O (H-Y[Aib]EGTFTSDYSYYLEKQAAC(X4)LFVQWLLAGGPSSGAPPPS-NH2)
EC50 [1]: 1.25 nM | Activity (Mus musculus [2]): Active | EC50 [3]: 0.73 nM
